Measurements reported in PubChem BioAssay AID328 (DTP/NCI, 2004).
Values joined by “and” are separate entries in the source; they are usually repeats but may differ in a detail not shown here. Equal values may be shown once. Inconclusive results and toxic doses are left out.

System: BDF1 mice, P388 leukemia ip, median survival T/C
Assay: NCI In Vivo Anticancer Drug Screen. Data for tumor model P388 Leukemia (intraperitoneal) in B6D2F1 (BDF1) mice
Conditions: endpoint: median survival time, higher = longer survival
Summary of the method: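 Mice carrying the transplantable tumour receive compound or vehicle. Survival is followed in each arm, and the treated measure is divided by the vehicle measure.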

[1] = dose: 100.0 mg/kg/injection, schedule: Q04DX003 (ip), vehicle: saline with Tween-80
[2] = dose: 200.0 mg/kg/injection, schedule: Q04DX003 (ip), vehicle: saline with Tween-80
[3] = dose: 400.0 mg/kg/injection, schedule: Q04DX003 (ip), vehicle: saline with Tween-80
[4] = dose: 25.0 mg/kg/injection, schedule: Q01DX009 (ip), vehicle: saline
[5] = dose: 50.0 mg/kg/injection, schedule: Q01DX009 (ip), vehicle: saline
[6] = dose: 50.0 mg/kg/injection, schedule: Q04DX003 (ip), vehicle: saline
[7] = dose: 100.0 mg/kg/injection, schedule: Q04DX003 (ip), vehicle: saline
[8] = dose: 50.0 mg/kg/injection, schedule: Q04DX003 (ip), vehicle: saline with Tween-80
[9] = dose: 12.5 mg/kg/injection, schedule: Q01DX009 (ip), vehicle: saline with Tween-80
[10] = dose: 12.5 mg/kg/injection, schedule: Q01DX009 (ip), vehicle: saline
[11] = dose: 100.0 mg/kg/injection, schedule: Q01DX009 (ip), vehicle: saline with Tween-80
[12] = dose: 200.0 mg/kg/injection, schedule: Q01DX009 (ip), vehicle: saline with Tween-80
[13] = dose: 400.0 mg/kg/injection, schedule: Q01DX009 (ip), vehicle: saline with Tween-80
[14] = dose: 50.0 mg/kg/injection, schedule: Q01DX009 (ip), vehicle: saline with Tween-80

O=C1C(N2CC2)=C(N2CC2)C(=O)C(N2CC2)=C1N1CC1
T/C (dose: 0.02 mg/kg/injection, schedule: Q01DX009 (ip), vehicle: saline): 232 % of control and 307 % of control | T/C (dose: 0.04 mg/kg/injection, schedule: Q01DX009 (ip), vehicle: saline): 201 % of control | T/C (dose: 0.04 mg/kg/injection, schedule: Q04DX003 (ip), vehicle: saline with Tween-80): 114 % of control | T/C (dose: 0.06 mg/kg/injection, schedule: Q04DX003 (ip), vehicle: saline with Tween-80): 118 % of control | T/C (dose: 0.07 mg/kg/injection, schedule: Q04DX003 (ip), vehicle: saline with Tween-80): 109 % of control | T/C (dose: 0.08 mg/kg/injection, schedule: Q01DX009 (ip), vehicle: saline): 109 % of control | T/C (dose: 0.11 mg/kg/injection, schedule: Q04DX003 (ip), vehicle: other): 200 % of control | T/C (dose: 0.15 mg/kg/injection, schedule: Q04DX003 (ip), vehicle: saline with Tween-80): 185 % of control | T/C (dose: 0.25 mg/kg/injection, schedule: Q04DX003 (ip), vehicle: other): 186 % of control | T/C (dose: 0.25 mg/kg/injection, schedule: Q04DX003 (ip), vehicle: saline with Tween-80): 163 % of control | T/C (dose: 6.6 micrograms/kg/injection, schedule: Q01DX009 (ip), vehicle: saline with Tween-80): 150 % of control | T/C (dose: 10.0 micrograms/kg/injection, schedule: Q01DX009 (ip), vehicle: saline with Tween-80): 175 % of control | T/C (dose: 20.0 micrograms/kg/injection, schedule: Q01DX009 (ip), vehicle: saline with Tween-80): 164 % of control | T/C (dose: 30.0 micrograms/kg/injection, schedule: Q01DX009 (ip), vehicle: saline with Tween-80): 164 % of control | T/C (dose: 31.3 micrograms/kg/injection, schedule: Q01DX009 (ip), vehicle: saline with Tween-80): 156 % of control | T/C (dose: 45.0 micrograms/kg/injection, schedule: Q01DX009 (ip), vehicle: saline with Tween-80): 268 % of control | T/C (dose: 62.5 micrograms/kg/injection, schedule: Q01DX009 (ip), vehicle: saline with Tween-80): 87 % of control | T/C (dose: 125.0 micrograms/kg/injection, schedule: Q01DX009 (ip), vehicle: saline with Tween-80): 86 % of control

Cc1ccc(N(OC(=O)c2ccccc2)C(C)(C)C)cc1
T/C (dose: 25.0 mg/kg/injection, schedule: Q04DX002 (ip), vehicle: saline with Tween-80): 93 % of control | T/C (dose: 50.0 mg/kg/injection, schedule: Q04DX002 (ip), vehicle: saline with Tween-80): 109 % of control | T/C (dose: 100.0 mg/kg/injection, schedule: Q04DX002 (ip), vehicle: saline with Tween-80): 111 % of control and 113 % of control

COn1nnc2c(Cl)c(Cl)ccc21
T/C [1]: 95 % of control | T/C [2]: 92 % of control | T/C [3]: 100 % of control

CCOC(=O)Nc1cc(NC(C)CCCN(CC)CC)c2ncc(-c3cc(OC)c(OC)c(OC)c3)nc2n1 (stereo not drawn) (tested in a mixture with another compound)
T/C [4]: 115 % of control | T/C [5]: 120 % of control | T/C [6]: 95 % of control | T/C [7]: 109 % of control

CC1CC(OC(=O)CCN2CC2)CC(C)(C)C1 (stereo not drawn)
T/C (dose: 5.0 mg/kg/injection, schedule: Q04DX003 (ip), vehicle: Klucel (hydroxypropylcellulose) (HPC)): 95 % of control and 109 % of control | T/C (dose: 10.0 mg/kg/injection, schedule: Q04DX003 (ip), vehicle: Klucel (hydroxypropylcellulose) (HPC)): 104 % of control | T/C (dose: 20.0 mg/kg/injection, schedule: Q04DX003 (ip), vehicle: Klucel (hydroxypropylcellulose) (HPC)): 100 % of control

Cc1cc(C)c(CCc2cc(C)c(C)cc2C)cc1C
T/C (dose: 50.0 mg/kg/injection, schedule: Q04DX003 (ip), vehicle: Klucel (hydroxypropylcellulose) (HPC)): 95 % of control | T/C (dose: 100.0 mg/kg/injection, schedule: Q04DX003 (ip), vehicle: Klucel (hydroxypropylcellulose) (HPC)): 91 % of control | T/C (dose: 200.0 mg/kg/injection, schedule: Q04DX003 (ip), vehicle: Klucel (hydroxypropylcellulose) (HPC)): 87 % of control and 108 % of control

NC(C(=O)O)C(O)c1cnc[nH]1 (stereo not drawn)
T/C (dose: 25.0 mg/kg/injection, schedule: Q01DX009 (ip), vehicle: water): 101 % of control | T/C (dose: 50.0 mg/kg/injection, schedule: Q01DX009 (ip), vehicle: water): 96 % of control | T/C (dose: 100.0 mg/kg/injection, schedule: Q01DX009 (ip), vehicle: water): 97 % of control | T/C (dose: 200.0 mg/kg/injection, schedule: Q01DX009 (ip), vehicle: water): 93 % of control | T/C (dose: 400.0 mg/kg/injection, schedule: Q01DX009 (ip), vehicle: water): 97 % of control

CCCCCCOC(=O)C(O)c1ccccc1 (stereo not drawn)
T/C [8]: 109 % of control | T/C [1]: 95 % of control | T/C [2]: 95 % of control | T/C [3]: 100 % of control

Clc1nc2ccccc2nc1CI
T/C (dose: 1.8 mg/kg/injection, schedule: Q01DX009 (ip), vehicle: saline): 118 % of control | T/C (dose: 2.7 mg/kg/injection, schedule: Q01DX009 (ip), vehicle: saline): 122 % of control | T/C (dose: 8.75 mg/kg/injection, schedule: Q04DX003 (ip), vehicle: saline): 113 % of control | T/C [9]: 118 % of control | T/C [10]: 90 % of control | T/C (dose: 12.5 mg/kg/injection, schedule: Q04DX003 (ip), vehicle: saline with Tween-80): 113 % of control | T/C (dose: 17.5 mg/kg/injection, schedule: Q04DX003 (ip), vehicle: saline): 121 % of control | T/C (dose: 25.0 mg/kg/injection, schedule: Q04DX003 (ip), vehicle: saline with Tween-80): 118 % of control | T/C (dose: 35.0 mg/kg/injection, schedule: Q04DX003 (ip), vehicle: saline): 113 % of control | T/C [6]: 113 % of control

O=C(O)C1(c2ccccc2)CC1
T/C [11]: 109 % of control | T/C [12]: 90 % of control | T/C [13]: 90 % of control

OCCN1CCN(CCCN2c3ccccc3Sc3cccnc32)CC1
T/C [10]: 104 % of control | T/C (dose: 18.75 mg/kg/injection, schedule: Q04DX003 (ip), vehicle: saline): 96 % of control | T/C [4]: 108 % of control and 110 % of control | T/C (dose: 37.5 mg/kg/injection, schedule: Q04DX003 (ip), vehicle: saline): 107 % of control | T/C [5]: 122 % of control

CC1(C)N=C(N)N=C(N)N1c1ccc(CCc2ccccc2)cc1
T/C (dose: 22.0 mg/kg/injection, schedule: Q01DX009 (ip), vehicle: saline with Tween-80): 104 % of control | T/C (dose: 33.0 mg/kg/injection, schedule: Q01DX009 (ip), vehicle: saline with Tween-80): 100 % of control | T/C [14]: 112 % of control

O=C(c1ccc(Cl)cc1)C1Cc2ccccc2C1=O (stereo not drawn)
T/C [11]: 91 % of control | T/C [1]: 91 % of control | T/C [12]: 91 % of control | T/C [2]: 121 % of control | T/C [13]: 100 % of control | T/C [3]: 100 % of control

O=[N+]([O-])c1ccc(S(=O)(=O)OCc2cccc(OS(=O)(=O)c3ccc([N+](=O)[O-])cc3)c2)cc1
T/C (dose: 100.0 mg/kg/injection, schedule: Q04DX003 (ip), vehicle: saline sonified): 105 % of control | T/C (dose: 200.0 mg/kg/injection, schedule: Q04DX003 (ip), vehicle: saline sonified): 116 % of control | T/C (dose: 400.0 mg/kg/injection, schedule: Q04DX003 (ip), vehicle: saline sonified): 105 % of control

O=C(Nc1cc(C(F)(F)F)ccc1Cl)ON1CCCCC1
T/C [9]: 107 % of control | T/C (dose: 25.0 mg/kg/injection, schedule: Q01DX009 (ip), vehicle: saline with Tween-80): 94 % of control | T/C [14]: 114 % of control and 124 % of control | T/C [11]: 100 % of control and 102 % of control | T/C [12]: 91 % of control

COC(CN(C)C(=O)NC1CCCCC1)OC
T/C [8]: 95 % of control | T/C [1]: 100 % of control | T/C [2]: 100 % of control

CC1(c2ccco2)NC(=O)N(Cl)C1=O (stereo not drawn)
T/C [5]: 89 % of control | T/C (dose: 100.0 mg/kg/injection, schedule: Q01DX009 (ip), vehicle: saline): 98 % of control | T/C (dose: 200.0 mg/kg/injection, schedule: Q01DX009 (ip), vehicle: saline): 105 % of control

CC1(C)COCN1CN1COCC1(C)C
T/C [6]: 150 % of control | T/C [7]: 155 % of control

O=C(Oc1ccccc1[N+](=O)[O-])c1ccccc1
T/C (dose: 25.0 mg/kg/injection, schedule: Q04DX003 (ip), vehicle: other): 100 % of control | T/C (dose: 75.0 mg/kg/injection, schedule: Q04DX003 (ip), vehicle: other): 100 % of control | T/C (dose: 150.0 mg/kg/injection, schedule: Q04DX003 (ip), vehicle: other): 95 % of control | T/C (dose: 400.0 mg/kg/injection, schedule: Q04DX003 (ip), vehicle: other): 90 % of control

ClCCCCCCCCCCc1ccccc1
T/C [8]: 106 % of control | T/C [1]: 109 % of control and 110 % of control | T/C [2]: 108 % of control and 118 % of control
